Test [1] concerns Epidermal growth factor receptor (Homo sapiens), P00533 [UNDEFINED MUTATION]. Briefly: Selectivity interaction (KinomeScan (DiscoverX)) EUB0000607a EGFR. Particulars: at 10 µM.
Test [2] has as its target T1, Serine/threonine-protein kinase Sgk1 (Homo sapiens) (UniProt O00141).
T1 sequence (whole entry): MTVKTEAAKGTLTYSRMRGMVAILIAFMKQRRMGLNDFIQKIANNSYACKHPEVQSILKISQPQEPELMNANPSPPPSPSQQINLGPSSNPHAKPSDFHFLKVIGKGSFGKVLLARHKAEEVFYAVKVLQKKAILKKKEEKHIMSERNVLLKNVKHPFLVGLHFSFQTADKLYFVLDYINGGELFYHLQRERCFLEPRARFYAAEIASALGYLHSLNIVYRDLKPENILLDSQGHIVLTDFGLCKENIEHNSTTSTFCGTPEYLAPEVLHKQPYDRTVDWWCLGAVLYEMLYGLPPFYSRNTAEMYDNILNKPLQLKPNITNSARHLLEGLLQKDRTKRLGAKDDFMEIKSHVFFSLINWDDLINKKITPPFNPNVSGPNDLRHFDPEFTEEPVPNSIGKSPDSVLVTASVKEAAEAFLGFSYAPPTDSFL
Briefly: Selectivity interaction (KinomeScan (DiscoverX)) EUB0000607a SGK1. Particulars: at 10 µM.

The target of test [3] is Serine/threonine-protein kinase SIK2 (Homo sapiens) (UniProt Q9H0K1). The test can be described thus: Selectivity interaction (KinomeScan (DiscoverX)) EUB0001619a SIK2. Particulars: at 1 µM.
The target of test [4] is Serine/threonine-protein kinase MARK2 (Homo sapiens) (UniProt Q7KZI7). The test can be described thus: Selectivity interaction (ActivX KiNativ screen (kinase selectivity in THP-1 cell lysates)) EUB0000639a MARK2. It counts as subcellular. To be noted: lysate, at 0.01 µM.
Test [5] concerns the target T2, Mitogen-activated protein kinase kinase kinase 7 (Homo sapiens) (UniProt O43318).
T2 sequence (whole entry): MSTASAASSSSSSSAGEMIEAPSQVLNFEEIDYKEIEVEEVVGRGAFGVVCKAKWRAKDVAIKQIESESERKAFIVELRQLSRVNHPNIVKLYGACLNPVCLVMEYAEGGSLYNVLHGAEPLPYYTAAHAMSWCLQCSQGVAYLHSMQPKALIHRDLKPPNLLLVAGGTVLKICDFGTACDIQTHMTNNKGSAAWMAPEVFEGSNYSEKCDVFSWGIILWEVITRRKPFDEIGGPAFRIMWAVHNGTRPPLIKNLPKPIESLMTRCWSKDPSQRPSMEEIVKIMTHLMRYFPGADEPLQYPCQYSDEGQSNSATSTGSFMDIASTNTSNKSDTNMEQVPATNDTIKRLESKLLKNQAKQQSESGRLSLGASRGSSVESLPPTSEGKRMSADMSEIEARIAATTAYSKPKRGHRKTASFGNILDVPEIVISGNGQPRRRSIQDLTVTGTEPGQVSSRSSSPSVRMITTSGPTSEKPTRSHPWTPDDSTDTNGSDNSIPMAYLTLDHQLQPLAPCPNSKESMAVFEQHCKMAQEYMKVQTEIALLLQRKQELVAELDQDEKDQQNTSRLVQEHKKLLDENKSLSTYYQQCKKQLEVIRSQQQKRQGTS
Briefly: Selectivity interaction (ProQinase) EUB0000171b MAP3K7.

The target in test [6] is T3, Dual specificity protein kinase TTK (Homo sapiens) (UniProt P33981).
T3 sequence (whole entry): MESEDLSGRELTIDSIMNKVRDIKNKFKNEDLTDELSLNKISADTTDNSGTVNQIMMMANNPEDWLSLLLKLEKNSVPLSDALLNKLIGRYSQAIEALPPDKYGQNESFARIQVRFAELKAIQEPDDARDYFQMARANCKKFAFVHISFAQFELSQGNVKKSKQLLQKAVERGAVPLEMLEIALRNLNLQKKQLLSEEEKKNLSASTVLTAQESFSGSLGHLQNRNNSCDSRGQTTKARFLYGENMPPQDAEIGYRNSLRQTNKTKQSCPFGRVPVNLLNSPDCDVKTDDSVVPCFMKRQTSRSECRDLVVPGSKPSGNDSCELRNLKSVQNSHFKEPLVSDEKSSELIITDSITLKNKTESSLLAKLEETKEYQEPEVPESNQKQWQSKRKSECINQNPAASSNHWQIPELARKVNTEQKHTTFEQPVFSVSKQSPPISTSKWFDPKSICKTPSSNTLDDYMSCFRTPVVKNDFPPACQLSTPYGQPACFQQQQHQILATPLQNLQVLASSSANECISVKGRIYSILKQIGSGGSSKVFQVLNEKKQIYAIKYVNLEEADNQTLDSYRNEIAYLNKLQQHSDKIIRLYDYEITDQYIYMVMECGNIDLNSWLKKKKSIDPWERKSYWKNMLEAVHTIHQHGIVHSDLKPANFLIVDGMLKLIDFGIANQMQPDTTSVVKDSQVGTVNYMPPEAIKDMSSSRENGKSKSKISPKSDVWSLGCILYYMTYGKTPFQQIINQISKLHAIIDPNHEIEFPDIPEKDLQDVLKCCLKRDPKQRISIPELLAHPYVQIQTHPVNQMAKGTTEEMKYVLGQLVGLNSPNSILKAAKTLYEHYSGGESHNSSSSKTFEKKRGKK
Briefly: Selectivity interaction (ProQinase) EUB0000171b TTK.

Test [7] deals with E3 ubiquitin-protein ligase TRIM33 (Homo sapiens) (UniProt Q9UPN9). Briefly: Selectivity interaction (Bromodomain panel (DSF asssay)) EUB0000270b TRIM33.
For test [8], the target named is Tyrosine-protein kinase ABL2 (Homo sapiens, UniProt P42684). Briefly: Selectivity interaction (KinomeScan (DiscoverX)) EUB0000092b ABL2. Particulars: at 10 µM.
In test [9] the target is Serine/threonine-protein kinase Nek7 (Homo sapiens) (UniProt Q8TDX7). Briefly: Selectivity interaction (Upstate Kinase Profiler service (Millipore)) EUB0000056c NEK7. Particulars: at 1 µM.
Sequence of Serine/threonine-protein kinase Nek7 (Homo sapiens) (Q8TDX7 whole entry, looked up): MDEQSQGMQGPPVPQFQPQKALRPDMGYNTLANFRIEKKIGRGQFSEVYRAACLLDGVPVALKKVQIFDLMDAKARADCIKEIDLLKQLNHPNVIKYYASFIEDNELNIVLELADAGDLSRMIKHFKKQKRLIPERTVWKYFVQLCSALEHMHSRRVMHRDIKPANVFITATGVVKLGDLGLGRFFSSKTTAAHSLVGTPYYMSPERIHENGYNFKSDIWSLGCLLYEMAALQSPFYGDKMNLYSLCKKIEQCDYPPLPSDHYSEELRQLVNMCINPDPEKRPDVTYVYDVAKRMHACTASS

Sequence of Serine/threonine-protein kinase MARK2 (Homo sapiens) (Q7KZI7 whole entry): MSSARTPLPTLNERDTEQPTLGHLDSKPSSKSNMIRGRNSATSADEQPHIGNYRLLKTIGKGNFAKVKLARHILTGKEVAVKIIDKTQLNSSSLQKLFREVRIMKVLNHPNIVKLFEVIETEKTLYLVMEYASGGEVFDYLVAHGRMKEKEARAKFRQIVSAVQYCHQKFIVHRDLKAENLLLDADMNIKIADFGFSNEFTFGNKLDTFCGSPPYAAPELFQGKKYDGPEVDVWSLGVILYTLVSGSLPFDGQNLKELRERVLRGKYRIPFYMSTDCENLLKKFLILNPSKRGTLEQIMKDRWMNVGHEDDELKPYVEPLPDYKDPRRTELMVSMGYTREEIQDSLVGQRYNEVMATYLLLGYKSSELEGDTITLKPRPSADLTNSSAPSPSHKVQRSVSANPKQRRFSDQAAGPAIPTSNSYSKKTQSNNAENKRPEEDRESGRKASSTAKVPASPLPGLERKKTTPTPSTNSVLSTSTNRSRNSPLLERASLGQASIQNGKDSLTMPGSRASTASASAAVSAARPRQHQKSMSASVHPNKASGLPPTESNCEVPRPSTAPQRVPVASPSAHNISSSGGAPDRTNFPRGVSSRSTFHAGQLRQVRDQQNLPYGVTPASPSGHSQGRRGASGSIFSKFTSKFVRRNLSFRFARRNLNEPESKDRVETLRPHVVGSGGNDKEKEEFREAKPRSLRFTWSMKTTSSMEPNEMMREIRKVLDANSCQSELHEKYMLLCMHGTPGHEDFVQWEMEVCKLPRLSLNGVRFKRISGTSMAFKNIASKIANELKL
Sequence of Serine/threonine-protein kinase SIK2 (Homo sapiens) (Q9H0K1 whole entry, looked up): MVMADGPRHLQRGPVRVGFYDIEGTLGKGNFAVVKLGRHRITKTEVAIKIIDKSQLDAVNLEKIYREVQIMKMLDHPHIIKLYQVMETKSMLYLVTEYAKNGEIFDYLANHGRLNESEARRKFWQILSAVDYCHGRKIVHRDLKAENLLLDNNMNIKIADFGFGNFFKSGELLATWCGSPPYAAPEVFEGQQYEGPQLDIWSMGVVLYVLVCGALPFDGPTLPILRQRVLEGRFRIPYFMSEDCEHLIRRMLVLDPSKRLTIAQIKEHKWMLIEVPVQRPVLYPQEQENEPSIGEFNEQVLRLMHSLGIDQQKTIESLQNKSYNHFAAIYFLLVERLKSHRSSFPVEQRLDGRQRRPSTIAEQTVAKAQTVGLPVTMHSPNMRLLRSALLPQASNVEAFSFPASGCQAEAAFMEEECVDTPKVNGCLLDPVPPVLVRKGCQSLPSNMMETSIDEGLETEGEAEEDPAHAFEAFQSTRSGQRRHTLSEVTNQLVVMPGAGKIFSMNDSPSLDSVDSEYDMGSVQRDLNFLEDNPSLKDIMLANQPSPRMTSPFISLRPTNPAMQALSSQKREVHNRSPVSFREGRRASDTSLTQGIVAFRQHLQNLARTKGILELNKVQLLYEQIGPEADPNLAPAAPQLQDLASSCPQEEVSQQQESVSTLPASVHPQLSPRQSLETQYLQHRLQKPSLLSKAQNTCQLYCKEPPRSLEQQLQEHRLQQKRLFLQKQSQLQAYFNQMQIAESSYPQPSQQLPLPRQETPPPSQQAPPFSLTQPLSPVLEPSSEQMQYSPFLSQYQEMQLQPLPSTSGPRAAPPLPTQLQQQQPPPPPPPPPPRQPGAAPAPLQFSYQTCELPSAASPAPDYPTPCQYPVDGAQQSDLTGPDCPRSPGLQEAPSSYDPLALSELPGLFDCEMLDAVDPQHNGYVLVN
Sequence of Tyrosine-protein kinase ABL2 (P42684 whole entry): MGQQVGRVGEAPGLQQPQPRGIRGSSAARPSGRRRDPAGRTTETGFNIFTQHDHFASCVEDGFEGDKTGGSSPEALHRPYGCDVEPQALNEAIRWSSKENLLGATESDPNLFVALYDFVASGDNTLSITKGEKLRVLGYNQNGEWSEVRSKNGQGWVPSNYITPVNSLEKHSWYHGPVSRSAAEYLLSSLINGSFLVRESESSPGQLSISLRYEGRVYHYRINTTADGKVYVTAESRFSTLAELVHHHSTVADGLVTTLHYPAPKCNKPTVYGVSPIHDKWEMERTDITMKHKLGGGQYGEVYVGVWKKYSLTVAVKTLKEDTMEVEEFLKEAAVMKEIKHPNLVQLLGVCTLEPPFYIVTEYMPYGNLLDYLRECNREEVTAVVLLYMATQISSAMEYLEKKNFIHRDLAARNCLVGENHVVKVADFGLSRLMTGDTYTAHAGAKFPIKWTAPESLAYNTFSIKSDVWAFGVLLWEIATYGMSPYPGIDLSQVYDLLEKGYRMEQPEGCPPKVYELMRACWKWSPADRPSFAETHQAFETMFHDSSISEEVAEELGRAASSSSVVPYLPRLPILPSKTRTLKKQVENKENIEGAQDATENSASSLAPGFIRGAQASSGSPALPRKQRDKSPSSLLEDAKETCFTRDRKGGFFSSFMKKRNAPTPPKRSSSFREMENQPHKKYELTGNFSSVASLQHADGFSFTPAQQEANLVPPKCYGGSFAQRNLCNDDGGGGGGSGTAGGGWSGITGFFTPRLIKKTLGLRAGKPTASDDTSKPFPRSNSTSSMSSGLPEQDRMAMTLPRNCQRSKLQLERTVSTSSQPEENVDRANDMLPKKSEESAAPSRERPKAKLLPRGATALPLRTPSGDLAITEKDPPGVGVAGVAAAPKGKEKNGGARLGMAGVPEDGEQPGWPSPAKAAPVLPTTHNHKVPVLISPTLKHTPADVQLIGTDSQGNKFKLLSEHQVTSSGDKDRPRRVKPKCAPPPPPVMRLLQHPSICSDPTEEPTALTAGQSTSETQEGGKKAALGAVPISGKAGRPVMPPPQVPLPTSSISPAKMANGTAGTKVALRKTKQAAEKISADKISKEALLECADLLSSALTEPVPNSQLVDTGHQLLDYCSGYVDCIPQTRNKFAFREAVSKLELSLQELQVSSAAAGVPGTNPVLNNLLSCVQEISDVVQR
Sequence of Epidermal growth factor receptor (Homo sapiens), P00533 [UNDEFINED MUTATION] (P00533 whole entry, looked up, change not shown): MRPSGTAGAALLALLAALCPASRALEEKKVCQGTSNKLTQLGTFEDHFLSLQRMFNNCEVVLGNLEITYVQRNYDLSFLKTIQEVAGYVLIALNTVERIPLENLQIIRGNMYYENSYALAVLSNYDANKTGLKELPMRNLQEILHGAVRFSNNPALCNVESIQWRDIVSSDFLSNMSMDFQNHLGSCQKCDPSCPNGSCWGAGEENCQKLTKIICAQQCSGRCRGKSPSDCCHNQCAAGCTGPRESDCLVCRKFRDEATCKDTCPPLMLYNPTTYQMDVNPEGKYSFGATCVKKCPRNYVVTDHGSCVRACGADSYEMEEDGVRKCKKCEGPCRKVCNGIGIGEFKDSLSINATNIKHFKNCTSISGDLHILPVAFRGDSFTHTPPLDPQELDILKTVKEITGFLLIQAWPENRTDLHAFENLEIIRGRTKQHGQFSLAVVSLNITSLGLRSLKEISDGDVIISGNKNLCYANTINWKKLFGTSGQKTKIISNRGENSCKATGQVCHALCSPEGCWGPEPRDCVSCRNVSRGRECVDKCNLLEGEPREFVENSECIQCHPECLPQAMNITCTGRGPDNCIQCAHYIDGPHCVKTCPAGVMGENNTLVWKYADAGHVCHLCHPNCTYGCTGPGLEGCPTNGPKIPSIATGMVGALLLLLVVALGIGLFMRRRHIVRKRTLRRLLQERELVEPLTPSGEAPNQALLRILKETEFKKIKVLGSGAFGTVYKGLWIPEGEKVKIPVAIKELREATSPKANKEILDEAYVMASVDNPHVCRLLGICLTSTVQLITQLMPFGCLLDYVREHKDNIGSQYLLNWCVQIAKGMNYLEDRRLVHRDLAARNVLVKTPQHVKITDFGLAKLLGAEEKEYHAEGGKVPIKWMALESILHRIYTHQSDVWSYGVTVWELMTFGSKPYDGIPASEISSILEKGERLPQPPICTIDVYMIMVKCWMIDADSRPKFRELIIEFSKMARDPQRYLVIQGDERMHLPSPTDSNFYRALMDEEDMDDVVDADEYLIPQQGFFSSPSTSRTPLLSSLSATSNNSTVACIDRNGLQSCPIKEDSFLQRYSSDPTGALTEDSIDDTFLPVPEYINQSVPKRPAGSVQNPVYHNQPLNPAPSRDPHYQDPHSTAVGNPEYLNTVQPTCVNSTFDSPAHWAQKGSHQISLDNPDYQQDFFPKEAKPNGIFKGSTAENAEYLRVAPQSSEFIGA

`CNC(=O)Nc1ccc(-c2nc(N3CC4CCC(C3)O4)c3cnn(C4CCC5(CC4)OCCO5)c3n2)cc1`: the % of control in test [1] worked out at 50%; in [2], 100%.
The compound `N#Cc1cccc(-c2c[nH]c3ncnc(N4CCOCC4)c23)c1` yielded a % of control in test [3] of 32%.
Turning to `CC[C@@H]1[C@H](F)C(=O)N[C@@H]1COc1nccc2cc(C(N)=O)c(OC)cc12` [ZIMLOVISERTIB], the % of inhibition in [4] amounted to 2.3%.
As for `C=CC(=O)Nc1cccc(C(=O)Nc2ccc(Nc3cc(-c4[nH]c(SC)nc4C)ccn3)cc2)c1`, the % of control in [5] (at 1 µM) was determined as 101%; in test [5] (at 5 µM), 77%; in [6] (at 1 µM) it was 72%; in test [6] (at 5 µM), 34%.
For `Cc1cc(CN)cc(C)c1-c1ncn(C)c1-c1cncn1C`, the dTM in test [7] is -0.48 K.
Consider `CCC(=O)N1CCN(c2ccc(-n3c(=O)ccc4cnc5ccc(-c6cnc7ccccc7c6)cc5c43)cc2C(F)(F)F)CC1`, for which, in [8], the % of control worked out at 99%.
Consider `Cc1ccc(-c2ccc3c(ccc4sc5c(c43)NC[C@@H](C)NC5=O)n2)cn1`, for which, in test [9], the % of inhibition is -3%.

For the origin of these results see ChEMBL document CHEMBL5465560, “Selectivity Literature for EUbOPEN Chemogenomic Library” (2024).
